Activity calls are given as the source filed them.
Experiments:
Cytochrome P450 3A4 = Cytochrome P450 3A4 (Homo sapiens, UniProt P08684); details: Potency;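 also: confirmatory qHTS run detecting inhibitors and substrates of CYP3A4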
Cytochrome P450 2D6 = Cytochrome P450 2D6 (Homo sapiens, UniProt P10635); test: qHTS Assay for Inhibitors and Substrates of Cytochrome P450 2D6. [Related pubchem assays: 410 ]; type: ADME; details: read-out: Potency
Cytochrome P450 2C19 = Cytochrome P450 2C19 (Homo sapiens, UniProt P33261); test: qHTS Assay for Inhibitors and Substrates of Cytochrome P450 2C19. [Related pubchem assays: 410 ]; type: ADME; details: read-out: Potency
Cytochrome P450 2C9 = Cytochrome P450 2C9 (Homo sapiens, UniProt P11712); details: Potency
[1] = M. tuberculosis growth inhibition, HTS (AID 449762); type: functional
cells [2] = type: functional
[3] = microbe, parasite or virus in culture; type: functional; details: Mycobacterium tuberculosis
[4] = THP-1 cell cytotoxicity, dose response, cytotoxicity control for non-replicating M. tuberculosis project (AID 489025); type: functional
[5] = molecular target: Aryl hydrocarbon receptor (Homo sapiens, UniProt P35869); test: Luminescence-based cell-based high throughput dose response assay for activators of the Aryl Hydrocarbon Receptor (AHR). [Related pubchem assays: 2796 (Primary screen (AHR activators in singlicate)), 2845 (Confirmation screen (AHR activators in triplicate)), 434939 (Counterscreen (PXR activators in triplicate)), 2804 (Summary (AHR activators))]; type: ADME
[6] = molecular target: Hepatocyte nuclear factor 4-alpha (Homo sapiens, UniProt P41235); type: functional, cell-based;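 also: biochemical luminescence-based dose-response counterscreen measuring inhibition of HNF4 dimerization, run alongside a screen for blockers of ABHD5–perilipin-5 interaction; split luciferase complementation of HNF4 fusion proteins in cell lysate measuring dimerization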
NADPH oxidase 1 = molecular target: T1, NADPH oxidase 1 (Homo sapiens, UniProt Q9Y5S8); test: Late-stage luminescence-based cell-based dose response assay to identify inhibitors of NADPH oxidase 1 (NOX1): Synthesized analogs.; type: functional
T1 sequence (Q9Y5S8 whole entry): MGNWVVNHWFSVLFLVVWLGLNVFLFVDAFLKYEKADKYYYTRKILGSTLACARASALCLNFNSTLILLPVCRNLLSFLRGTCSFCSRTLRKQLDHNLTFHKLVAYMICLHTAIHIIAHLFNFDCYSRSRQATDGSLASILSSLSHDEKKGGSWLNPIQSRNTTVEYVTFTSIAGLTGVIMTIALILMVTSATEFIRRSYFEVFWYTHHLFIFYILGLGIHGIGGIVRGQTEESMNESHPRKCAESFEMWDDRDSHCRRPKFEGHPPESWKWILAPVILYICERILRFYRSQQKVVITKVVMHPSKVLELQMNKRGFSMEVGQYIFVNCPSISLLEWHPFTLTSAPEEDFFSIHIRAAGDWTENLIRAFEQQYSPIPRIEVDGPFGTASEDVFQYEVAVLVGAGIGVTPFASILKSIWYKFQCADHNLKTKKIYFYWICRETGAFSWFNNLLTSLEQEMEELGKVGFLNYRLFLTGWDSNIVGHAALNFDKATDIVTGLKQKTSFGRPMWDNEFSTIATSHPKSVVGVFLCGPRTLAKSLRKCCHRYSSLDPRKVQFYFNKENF

[7] = non-specific 3'UTR reporter inhibition in Clone20-Shn3RL – cell-based, Renilla luciferase, cherry-picked, counter-screen for Shn3 inhibitor project, dose response (AID 624133); type: functional
[8] = molecular target: G-protein coupled receptor 55 (Homo sapiens, UniProt Q9Y2T6); test: selective activators of receptor GPR55 – imaging, U2OS cells, beta-arrestin-GFP redistribution, primary screen (AID 1961); type: functional
cells [9] = type: functional, cell-based; details: HEK-CNG
[10] = reduction of Shn3 3'UTR-driven luciferase in osteoblasts – cell-based, Clone20 osteoblasts, firefly luciferase, cherry-picked, dose response (AID 624132); type: functional;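 also: firefly luciferase luminescence from reporter carrying the Shn3 3'UTR in osteoblasts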
[11] = molecular target: E3 ubiquitin-protein ligase Mdm2 (Homo sapiens, UniProt Q00987); test: MDM2-luc reporter signal enhancers, multi-concentration potency testing, MDM2 ubiquitin-protein ligase inhibitor program, whole-cell format, luminescence detection, 384-well microplate (AID 1394); type: functional;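 also: MDM2 E3 inhibitors raise luminescence so EC50 is for signal enhancement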
Galanin receptor type 3 = molecular target: T2, Galanin receptor type 3 (Homo sapiens, UniProt O60755); test: Fluorescence-based cell-based primary high throughput dose response assay to identify antagonists of the Galanin Receptor 3 (GalR3).; type: functional
T2 sequence (O60755 whole entry): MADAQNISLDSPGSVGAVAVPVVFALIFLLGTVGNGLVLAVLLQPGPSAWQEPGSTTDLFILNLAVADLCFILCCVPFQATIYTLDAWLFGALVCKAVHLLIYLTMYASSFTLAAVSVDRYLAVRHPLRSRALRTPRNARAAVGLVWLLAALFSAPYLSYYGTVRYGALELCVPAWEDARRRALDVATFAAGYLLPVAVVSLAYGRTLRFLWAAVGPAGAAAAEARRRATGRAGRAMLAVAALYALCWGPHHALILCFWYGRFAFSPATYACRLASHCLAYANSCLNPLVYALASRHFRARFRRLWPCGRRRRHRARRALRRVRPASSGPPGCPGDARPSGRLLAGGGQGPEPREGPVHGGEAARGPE

[12] = molecular target: Solute carrier family 12 member 2/member 5 (Homo sapiens, UniProt P55011+Q9H2X9); test: KCC2 and NKCC1 inhibition by rubidium flux, cell-based, NKCC1 counter-screen (AID 1734); type: functional, HEK293

Cytochrome P450 2C19, sequence (P33261 whole entry): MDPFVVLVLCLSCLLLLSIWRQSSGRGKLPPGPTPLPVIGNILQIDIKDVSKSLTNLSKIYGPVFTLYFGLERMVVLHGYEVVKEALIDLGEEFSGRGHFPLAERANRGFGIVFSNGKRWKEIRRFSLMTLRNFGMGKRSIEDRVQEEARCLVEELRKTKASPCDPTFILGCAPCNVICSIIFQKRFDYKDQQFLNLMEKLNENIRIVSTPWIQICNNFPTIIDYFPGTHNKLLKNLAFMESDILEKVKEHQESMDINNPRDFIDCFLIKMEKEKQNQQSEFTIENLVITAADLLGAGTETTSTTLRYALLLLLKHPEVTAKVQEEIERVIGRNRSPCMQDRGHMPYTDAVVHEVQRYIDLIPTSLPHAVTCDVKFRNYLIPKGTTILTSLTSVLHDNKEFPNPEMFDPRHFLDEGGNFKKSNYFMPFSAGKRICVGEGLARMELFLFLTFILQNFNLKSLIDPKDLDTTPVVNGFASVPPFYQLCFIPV
Cytochrome P450 2C9, sequence (P11712 whole entry): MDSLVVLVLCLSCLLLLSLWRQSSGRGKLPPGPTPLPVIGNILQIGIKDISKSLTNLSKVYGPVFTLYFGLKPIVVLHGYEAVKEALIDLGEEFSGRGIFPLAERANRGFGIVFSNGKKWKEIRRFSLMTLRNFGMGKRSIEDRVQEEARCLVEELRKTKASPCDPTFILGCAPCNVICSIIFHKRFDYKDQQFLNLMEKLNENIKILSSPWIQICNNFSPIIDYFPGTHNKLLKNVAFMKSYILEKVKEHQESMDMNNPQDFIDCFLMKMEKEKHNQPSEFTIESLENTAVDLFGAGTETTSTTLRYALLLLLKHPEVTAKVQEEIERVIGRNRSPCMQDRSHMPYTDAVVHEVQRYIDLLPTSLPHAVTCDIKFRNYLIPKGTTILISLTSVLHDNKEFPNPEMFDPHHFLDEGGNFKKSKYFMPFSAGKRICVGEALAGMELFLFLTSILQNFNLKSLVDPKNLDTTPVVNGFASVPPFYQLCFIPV
Cytochrome P450 3A4, sequence (P08684 whole entry): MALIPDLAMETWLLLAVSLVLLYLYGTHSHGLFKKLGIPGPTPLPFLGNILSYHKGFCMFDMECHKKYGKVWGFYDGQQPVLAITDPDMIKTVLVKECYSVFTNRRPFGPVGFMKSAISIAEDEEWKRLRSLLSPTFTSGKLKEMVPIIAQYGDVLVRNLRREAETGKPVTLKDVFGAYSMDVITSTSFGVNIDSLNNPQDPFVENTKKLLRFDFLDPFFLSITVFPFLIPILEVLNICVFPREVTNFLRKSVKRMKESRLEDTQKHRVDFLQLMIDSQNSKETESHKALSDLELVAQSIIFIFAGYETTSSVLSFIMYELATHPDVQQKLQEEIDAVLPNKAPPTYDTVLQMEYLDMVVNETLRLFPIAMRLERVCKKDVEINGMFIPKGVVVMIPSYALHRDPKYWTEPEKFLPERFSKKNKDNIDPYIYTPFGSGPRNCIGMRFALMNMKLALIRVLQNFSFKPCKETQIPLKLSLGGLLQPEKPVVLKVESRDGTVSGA
Aryl hydrocarbon receptor, sequence (P35869 whole entry, the tested form may be a part): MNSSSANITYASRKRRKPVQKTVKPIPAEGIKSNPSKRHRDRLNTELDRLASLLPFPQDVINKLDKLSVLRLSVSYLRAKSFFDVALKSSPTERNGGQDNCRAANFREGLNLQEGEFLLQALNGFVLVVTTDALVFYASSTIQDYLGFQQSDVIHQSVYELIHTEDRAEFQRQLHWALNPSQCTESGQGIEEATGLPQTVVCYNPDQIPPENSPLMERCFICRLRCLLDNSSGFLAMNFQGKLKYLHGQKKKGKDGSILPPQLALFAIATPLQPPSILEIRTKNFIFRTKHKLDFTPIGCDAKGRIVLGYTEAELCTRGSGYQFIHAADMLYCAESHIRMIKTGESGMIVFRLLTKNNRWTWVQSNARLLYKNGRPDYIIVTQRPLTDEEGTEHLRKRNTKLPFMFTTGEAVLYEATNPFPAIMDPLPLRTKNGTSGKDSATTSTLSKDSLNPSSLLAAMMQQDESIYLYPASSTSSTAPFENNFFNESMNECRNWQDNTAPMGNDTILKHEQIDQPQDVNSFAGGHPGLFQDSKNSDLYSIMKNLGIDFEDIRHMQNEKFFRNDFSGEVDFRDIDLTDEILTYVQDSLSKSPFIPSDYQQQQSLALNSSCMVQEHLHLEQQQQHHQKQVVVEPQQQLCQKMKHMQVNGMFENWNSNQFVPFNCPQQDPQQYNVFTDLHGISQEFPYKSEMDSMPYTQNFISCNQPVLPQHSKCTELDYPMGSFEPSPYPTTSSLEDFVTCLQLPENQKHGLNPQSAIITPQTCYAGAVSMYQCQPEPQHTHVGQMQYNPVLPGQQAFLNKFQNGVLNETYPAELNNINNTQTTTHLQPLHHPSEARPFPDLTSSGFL
Hepatocyte nuclear factor 4-alpha, sequence (P41235 whole entry, the tested form may be a part): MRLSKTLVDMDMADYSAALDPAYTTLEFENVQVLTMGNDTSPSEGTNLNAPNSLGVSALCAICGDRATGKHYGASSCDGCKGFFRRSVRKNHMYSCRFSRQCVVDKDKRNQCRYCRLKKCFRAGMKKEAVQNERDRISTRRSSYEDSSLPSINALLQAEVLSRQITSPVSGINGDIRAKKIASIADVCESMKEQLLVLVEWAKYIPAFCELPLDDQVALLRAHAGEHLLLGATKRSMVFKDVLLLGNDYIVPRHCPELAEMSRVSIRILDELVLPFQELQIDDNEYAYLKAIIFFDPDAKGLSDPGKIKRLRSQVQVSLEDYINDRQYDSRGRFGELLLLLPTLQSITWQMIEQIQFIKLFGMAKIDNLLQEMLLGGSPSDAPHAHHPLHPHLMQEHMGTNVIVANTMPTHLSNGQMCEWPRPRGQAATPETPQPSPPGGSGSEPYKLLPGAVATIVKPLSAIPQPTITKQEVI
G-protein coupled receptor 55, sequence (Q9Y2T6 whole entry): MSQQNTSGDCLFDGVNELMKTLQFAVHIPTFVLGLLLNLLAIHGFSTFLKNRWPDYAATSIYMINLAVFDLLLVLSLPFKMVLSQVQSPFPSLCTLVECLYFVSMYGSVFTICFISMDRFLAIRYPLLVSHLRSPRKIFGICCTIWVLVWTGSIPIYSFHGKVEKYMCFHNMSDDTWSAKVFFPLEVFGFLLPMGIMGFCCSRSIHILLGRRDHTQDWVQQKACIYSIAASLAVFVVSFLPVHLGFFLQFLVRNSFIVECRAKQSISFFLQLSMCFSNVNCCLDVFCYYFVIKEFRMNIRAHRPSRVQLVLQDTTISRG
Cytochrome P450 2D6, sequence (P10635 whole entry): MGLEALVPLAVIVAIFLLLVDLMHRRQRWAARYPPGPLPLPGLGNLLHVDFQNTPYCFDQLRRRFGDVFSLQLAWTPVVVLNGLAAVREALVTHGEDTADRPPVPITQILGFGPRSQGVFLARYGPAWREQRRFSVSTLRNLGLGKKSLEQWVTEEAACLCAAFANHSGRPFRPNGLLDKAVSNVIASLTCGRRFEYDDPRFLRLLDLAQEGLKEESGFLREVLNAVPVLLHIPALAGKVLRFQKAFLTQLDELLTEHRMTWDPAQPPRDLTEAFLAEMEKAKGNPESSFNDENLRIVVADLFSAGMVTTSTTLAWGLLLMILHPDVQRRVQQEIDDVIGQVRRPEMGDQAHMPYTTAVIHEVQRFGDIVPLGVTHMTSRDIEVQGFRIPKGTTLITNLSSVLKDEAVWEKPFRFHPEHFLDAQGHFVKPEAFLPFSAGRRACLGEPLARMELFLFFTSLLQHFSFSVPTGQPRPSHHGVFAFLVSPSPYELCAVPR
E3 ubiquitin-protein ligase Mdm2, sequence (Q00987 whole entry): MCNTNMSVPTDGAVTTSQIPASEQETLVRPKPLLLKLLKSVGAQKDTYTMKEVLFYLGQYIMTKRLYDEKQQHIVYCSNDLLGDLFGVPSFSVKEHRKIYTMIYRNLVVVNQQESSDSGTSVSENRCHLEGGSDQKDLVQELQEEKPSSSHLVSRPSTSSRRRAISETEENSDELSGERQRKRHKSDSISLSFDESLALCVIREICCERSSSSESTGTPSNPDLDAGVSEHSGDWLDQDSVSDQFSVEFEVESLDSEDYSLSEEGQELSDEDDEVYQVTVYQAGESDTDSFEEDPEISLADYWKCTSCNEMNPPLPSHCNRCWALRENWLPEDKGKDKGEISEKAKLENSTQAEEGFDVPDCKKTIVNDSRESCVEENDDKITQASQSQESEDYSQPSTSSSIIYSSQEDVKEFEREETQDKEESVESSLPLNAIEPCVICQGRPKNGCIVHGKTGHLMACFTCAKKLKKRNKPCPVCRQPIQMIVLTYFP

For `O=c1c(O)c(-c2ccc(O)c(O)c2)oc2ccccc12`, the AC50 (Cytochrome P450 3A4) was 31.6 µM (inconclusive), the AC50 (Cytochrome P450 2D6) was 31.6 µM (inconclusive) and the AC50 (Cytochrome P450 2C19) was 25.1 µM (inconclusive). The AC50 (Cytochrome P450 2C9) was 31.6 µM (inconclusive).

For `CCCCNC(=O)Nc1nnc(-c2ccc(OCC)cc2)o1`, the IC50 [1] was > 100 µM (active), the IC50 (cells [2]) was 26.2 µM (active) and the CC50 [3] was > 40 µM (active). The CC50 [4] was > 40 µM (active).

For `Cc1nccc(-c2ccc(-n3cnc4ccccc43)cc2)n1`, the EC50 [5] was > 1.13 µM (active).

In the case of `C=CC(=O)N1c2ccccc2Sc2ccc(NC(=O)OCC)cc21`, the IC50 [6] is reported as 12.2 µM (inactive) and the IC50 (NADPH oxidase 1) is reported as > 50 µM (not active).

With `COc1ccccc1-c1cc(C(F)(F)F)nc(S(=O)(=O)CCCC(=O)Nc2cccnc2Cl)n1` the AC50 [7] was 13.1 µM (active), the EC50 [8] was 2.94 µM (active) and the EC50 (cells [9]) was > 29.9 µM (inactive). For the same compound, the AC50 [10] was 10.6 µM (active), the EC50 [11] was 2 µM (not active) and the IC50 (Galanin receptor type 3) was > 29.9 µM (inactive).

With `Cc1nc(CC(=O)Nc2nc(-c3ccccc3)cs2)cs1` the IC50 [12] was 79 µM (active).

Source: ChEMBL document CHEMBL1201862, “PubChem BioAssay data set” (2004)
